According to PubChem BioAssay AID2060486 (Molecular Pharmacology Branch, DTP, NCI, 2025):

System: IGROV1 complex spheroids (HUVEC, MSC), viability % test/control
Test: Anticancer human tumor IGROV1 cell line growth inhibition [GQUAD];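 note: spheroids exposed to compounds for 7 days before readout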
Conditions: for IC50: curve of first compound; for viability, T/C: stronger effect = lower value
Description: DNA G-quadruplex Stabilizer Agents in Combinations in Complex Spheroids
A high-throughput screen of multi-cell type tumor spheroids was designed to identify active combinations of DNA G-quadruplex stabilizer agents and targeted small molecules. Complex spheroids include a stromal component modeled by human endothelial cells (HUVEC) and fibroblasts modeled by human mesenchymal stem cells (MSCs). The concentration ranges selected for each drug and investigational agent were based upon clinically achievable concentrations if the clinical Cmax of the agent was known.
Compounds. The drugs and investigational agents: pidnarulex (CX-5461; NSC782164), APTO-253 (NSC789042), BRACO-19 (NSC847499), peposertib (NSC802822), ceralasertib (NSC780249), elimusertib (NSC800525), camonsertib (NSC841442), AZD-1390 (NSC803789), olaparib (NSC753686), talazoparib (NSC767125), ART-558 (NSC835418), sotorasib (NSC818433), MRTX-1133 (NSC836407), SN-38 (NSC673596), topotecan (NSC609699), etoposide (NSC141540), doxorubicin (NSC123127), gemcitabine (NSC613327), 5-fluorouracil (NSC19893), paclitaxel (NSC125973), vemurafenib (NSC761431), panobinostat (NSC761190), R-306465 (JNJ-16241199; NSC773264), adavosertib (NSC754352), TP-3654 (NSC805149), carboplatin (NSC241240), KSQ-4279 (NSC840948), and staurosporine (NSC755774) were obtained from the National Cancer Institute (NCI) Developmental Therapeutics Program Chemical Repository (34). The FDA-approved anticancer drug set is available from the NCI Developmental Therapeutics Program. […] The stock solutions were prepared in dimethyl sulfoxide (DMSO, Sigma-Aldrich, St. Louis, MO, cat. D2650) at 800-fold the tested concentration and stored at -70 degrees C prior to their use. All drugs and investigational agents were tested over a range starting from a high concentration at or near the clinical Cmax and decreasing in half-log increments. If the clinical Cmax for an agent had not been determined, the highest concentration tested was 10 microM.
2.3 Cell Culture. All cells were maintained in an incubator at 37 degrees C and 5% CO2 with 95% humidity. The PDC lines were cultured according to standard operating procedures established by the NCI PDMR. All PDCs were thawed and cultured in Matrigel-coated flasks prepared with a working solution of 1X Ham's F-12 nutrient mix, without supplementation (Invitrogen, cat. 11765054), 100 U/mL penicillin-streptomycin (Invitrogen, cat. 15140122), and 2.5% Matrigel (Corning Inc., cat. 354248) for the first three passages. The 857933-349-R-J2-PDC line was cultured in 6C/Colon 1B media, which includes advanced DMEM/F-12 (Thermo Fisher Scientific, cat. 12634028), 10 mM HEPES (Thermo Fisher Scientific, cat. 15630080), 1X GlutaMAX supplement (Thermo Fisher Scientific, cat. 35050061), 0.1 mg/mL primocin (InvivoGen, cat. ant-pm-2), 10% defined fetal bovine serum, heat inactivated (HyClone Laboratories Inc., cat. SH30070.03HI), 50% L-WRN conditioned media (ATCC, cat. CRL-3276), 1.25 mM N-Acetyl-L-cysteine (Sigma-Aldrich, cat. A9165), 10 mM nicotinamide (Sigma-Aldrich, cat. N0636), 1X B-27 supplement (Thermo Fisher Scientific, cat. 17504044), 1X N-2 supplement (Thermo Fisher Scientific, cat. 17502048), 10 microM Y-27632 dihydrochloride (Tocris Bioscience, cat. 1254), and 50 ng/mL human EGF recombinant protein (Thermo Fisher Scientific, cat. PHG0311). The 485176-168-R4-J1-PDC line was cultured in Panc media, which includes all 6C/Colon 1B media components plus 100 ng/mL human FGF-10 (Thermo Fisher Scientific, cat. 100-26), 500 nM SB-431542 (Selleckchem, cat. S1067), and gastrin (Tocris, cat. 3006).
[…]

[1] = second compound 0.0316 µM, first compound 0.0316 µM
[2] = second compound 0.0316 µM, first compound 0.1 µM
[3] = second compound 0.0316 µM, first compound 0.316 µM
[4] = second compound 0.0316 µM, first compound 1 µM
[5] = second compound 0.0316 µM, first compound 3.16 µM
[6] = second compound 0.0316 µM, first compound 10 µM
[7] = second compound 0.1 µM, first compound 0.0316 µM
[8] = second compound 0.1 µM, first compound 0.1 µM
[9] = second compound 0.1 µM, first compound 0.316 µM
[10] = second compound 0.1 µM, first compound 1 µM
[11] = second compound 0.1 µM, first compound 3.16 µM
[12] = second compound 0.1 µM, first compound 10 µM
[13] = second compound 0.316 µM, first compound 0.0316 µM
[14] = second compound 0.316 µM, first compound 0.1 µM
[15] = second compound 0.316 µM, first compound 0.316 µM
[16] = second compound 0.316 µM, first compound 1 µM
[17] = second compound 0.316 µM, first compound 3.16 µM
[18] = second compound 0.316 µM, first compound 10 µM
[19] = second compound 1 µM, first compound 0.0316 µM
[20] = second compound 1 µM, first compound 0.1 µM
[21] = second compound 1 µM, first compound 0.316 µM
[22] = second compound 1 µM, first compound 1 µM
[23] = second compound 1 µM, first compound 3.16 µM
[24] = second compound 1 µM, first compound 10 µM
[25] = second compound 3.16 µM, first compound 0.0316 µM
[26] = second compound 3.16 µM, first compound 0.1 µM
[27] = second compound 3.16 µM, first compound 0.316 µM
[28] = second compound 3.16 µM, first compound 1 µM
[29] = second compound 3.16 µM, first compound 3.16 µM
[30] = second compound 3.16 µM, first compound 10 µM
[31] = second compound 10 µM, first compound 0.0316 µM
[32] = second compound 10 µM, first compound 0.1 µM
[33] = second compound 10 µM, first compound 0.316 µM
[34] = second compound 10 µM, first compound 1 µM
[35] = second compound 10 µM, first compound 3.16 µM
[36] = second compound 10 µM, first compound 10 µM

CC1COCCN1c1cc(C2(O)CC3CCC(C2)O3)c2cnn(-c3ccn[nH]3)c2n1 (centres undefined) + CN(C)c1ccc(Nc2c3ccc(NC(=O)CCN4CCCC4)cc3nc3cc(NC(=O)CCN4CCCC4)ccc23)cc1
IC50 (second compound 0.0316 µM): 36.8 nM | IC50 (second compound 0.1 µM): < 31.6 nM | IC50 (second compound 0.316 µM): < 31.6 nM | IC50 (second compound 1 µM): < 31.6 nM | IC50 (second compound 3.16 µM): < 31.6 nM | IC50 (second compound 10 µM): < 31.6 nM | viability, T/C [1]: 54.8% | viability, T/C [2]: 20% | viability, T/C [3]: 7.64% | viability, T/C [4]: 5.68% | viability, T/C [5]: 2.88% | viability, T/C [6]: 1.63% | viability, T/C [7]: 45% | viability, T/C [8]: 22.7% | viability, T/C [9]: 9.08% | viability, T/C [10]: 5.11% | viability, T/C [11]: 3.48% | viability, T/C [12]: 1.19% | viability, T/C [13]: 45.8% | viability, T/C [14]: 19% | viability, T/C [15]: 9.25% | viability, T/C [16]: 4.51% | viability, T/C [17]: 4.65% | viability, T/C [18]: 1.93% | viability, T/C [19]: 42.6% | viability, T/C [20]: 17.5% | viability, T/C [21]: 8.86% | viability, T/C [22]: 5.16% | viability, T/C [23]: 4.18% | viability, T/C [24]: 1.58% | viability, T/C [25]: 38.7% | viability, T/C [26]: 13.4% | viability, T/C [27]: 8.17% | viability, T/C [28]: 4.73% | viability, T/C [29]: 4% | viability, T/C [30]: 1.78% | viability, T/C [31]: 17% | viability, T/C [32]: 10.2% | viability, T/C [33]: 5.93% | viability, T/C [34]: 4.42% | viability, T/C [35]: 3.55% | viability, T/C [36]: 1.05%

COc1ccc([C@@H](O)c2cc(-c3ncnc4cc(N5CCOCC5)ccc34)c(F)cc2Cl)nn1 + CN(C)c1ccc(Nc2c3ccc(NC(=O)CCN4CCCC4)cc3nc3cc(NC(=O)CCN4CCCC4)ccc23)cc1
IC50 (second compound 0.0316 µM): 1420 nM | IC50 (second compound 0.1 µM): 709 nM | IC50 (second compound 0.316 µM): 718 nM | IC50 (second compound 1 µM): 659 nM | IC50 (second compound 3.16 µM): 348 nM | IC50 (second compound 10 µM): 107 nM | viability, T/C [1]: 89.1% | viability, T/C [2]: 89.1% | viability, T/C [3]: 94.4% | viability, T/C [4]: 62% | viability, T/C [5]: 20.7% | viability, T/C [6]: 7.56% | viability, T/C [7]: 88.4% | viability, T/C [8]: 72.3% | viability, T/C [9]: 74% | viability, T/C [10]: 40.1% | viability, T/C [11]: 14.7% | viability, T/C [12]: 6.35% | viability, T/C [13]: 93.1% | viability, T/C [14]: 82.9% | viability, T/C [15]: 71% | viability, T/C [16]: 41.8% | viability, T/C [17]: 17.6% | viability, T/C [18]: 6.18% | viability, T/C [19]: 63.1% | viability, T/C [20]: 82.2% | viability, T/C [21]: 74% | viability, T/C [22]: 37.1% | viability, T/C [23]: 11.4% | viability, T/C [24]: 5.01% | viability, T/C [25]: 69.4% | viability, T/C [26]: 82.5% | viability, T/C [27]: 49.1% | viability, T/C [28]: 21.6% | viability, T/C [29]: 8.01% | viability, T/C [30]: 5.13% | viability, T/C [31]: 56.6% | viability, T/C [32]: 52.6% | viability, T/C [33]: 30.4% | viability, T/C [34]: 13.7% | viability, T/C [35]: 5.94% | viability, T/C [36]: 4.92%
